From patent US20100267561A1, “HERBICIDAL PYRIDAZINONE DERIVATIVES” (priority 2007, published 2010)
Read-outs that look alike come from different tables or passages of the source.

How the values were obtained:
Type in all cases: in vivo
[1] = test system: giant foxtail (Setaria faberi); assay: Test A pre-/postemergence plant response; details: Setaria faberi, 240 h, read-out: Plant response rating, Foxtail, Giant; for pest or weed control at 31 g/ha: 31 g ai/ha; for pest or weed control at 125 g/ha: 125 g ai/ha
Procedure, shortened: (§1)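 Ratings are visual, 0–100, where 100 means complete control and 0 no effect, taken roughly 10 days after treatment by comparison with untreated controls. Formulation: non-phytotoxic solvent mixture with surfactant.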

corn (Zea mays) = assay: Test A pre-/postemergence plant response; details: Zea mays, 240 h; for Corn plant response rating (crop injury, 0 = no effect, 100 = complete kill) at 31 g/ha: 31 g ai/ha; for Corn plant response rating (crop injury, 0 = no effect, 100 = complete kill) at 125 g/ha: 125 g ai/ha
Procedure, shortened: as §1

[2] = test system: johnsongrass (Sorghum halepense); assay: Test B pre-/postemergence plant response; details: for pest or weed control at 31 g/ha / pest or weed control at 62 g/ha: Sorghum halepense, read-out: Plant response rating, Johnsongrass; for pest or weed control at 31 g/ha: 31 g ai/ha; for pest or weed control at 62 g/ha: 62 g ai/ha, 100 complete control
Source text: (§2) Seeds of plant species selected from blackgrass (Alopecurus myosuroides), downy bromegrass (Bromus tectorum), green foxtail (Setaria viridis), Italian ryegrass (Lolium multiflorum), wheat (Triticum aestivum), wild oat (Avena fatua), catchweed bedstraw (Galium aparine), bermudagrass (Cynodon dactylon), surinam grass (Brachiaria decumbens), cocklebur (Xanthium strumarium), corn (Zea mays), large crabgrass (Digitaria sanguinalis), woolly cupgrass (Eriochloa villosa), giant foxtail (Setaria faberii), goosegrass (Eleusine indica), johnsongrass (Sorghum halepense), kochia (Kochia scoparia), lambsquarters (Chenopodium album), morningglory (Ipomoea coccinea), eastern black (E.B.) nightshade (Solanum ptycanthum), yellow nutsedge (Cyperus esculentus), pigweed (Amaranthus retroflexus), common ragweed (Ambrosia elation), Russian thistle (Salsola iberica), soybean (Glycine max), common (oilseed) sunflower (Helianthus annuus), and velvetleaf (Abutilon theophrasti) were planted and treated preemergence with test chemicals formulated in a non-phytotoxic solvent mixture which included a surfactant.
(§3) At the same time, plants selected from these crop and weed species and also winter barley (Hordeum vulgare), canarygrass (Phalaris minor), chickweed (Stellaria media) and windgrass (Apera spica-venti) were treated with postemergence applications of some of the test chemicals formulated in the same manner. Plants ranged in height from 2 to 18 cm (1- to 4-leaf stage) for postemergence treatments.
(§4) Plant species in the flooded paddy test consisted of rice (Oryza sativa), umbrella sedge (Cyperus difformis), ducksalad (Heteranthera limosa) and barnyardgrass (Echinochloa crus-galli) grown to the 2-leaf stage for testing. At time of treatment, test pots were flooded to 3 cm above the soil surface, treated by application of test compounds directly to the paddy water, and then maintained at that water depth for the duration of the test. Treated plants and controls were maintained in a greenhouse for 13 to 15 days, after which time all species were compared to controls and visually evaluated. Plant response ratings, summarized in Table B, are based on a scale of 0 to 100 where 0 is no effect and 100 is complete control. A dash (-) response means no test result.

soybean (Glycine max) = assay: Test B pre-/postemergence plant response; details: for plant injury at 31 g/ha / plant injury at 62 g/ha: Glycine max, read-out: Plant response rating, Soybean; for plant injury at 31 g/ha: 31 g ai/ha; for plant injury at 62 g/ha: 62 g ai/ha, 100 complete control
Source text: as §2, §3, §4

[3] = test system: bermudagrass (Cynodon dactylon); assay: Test B pre-/postemergence plant response; details: for pest or weed control at 31 g/ha: 31 g ai/ha; for pest or weed control at 62 g/ha: 62 g ai/ha, 100 complete control
Source text: as §2, §3, §4

[4] = test system: common (oilseed) sunflower (Helianthus annuus); assay: Test B pre-/postemergence plant response; details: Preemergence
Source text: as §2, §3, §4

[5] = test system: Italian ryegrass (Lolium multiflorum); assay: Test B pre-/postemergence plant response; details: for pest or weed control at 31 g/ha / pest or weed control at 62 g/ha: Lolium multiflorum, read-out: Plant response rating, Ryegrass, Italian; for pest or weed control at 31 g/ha: 31 g ai/ha; for pest or weed control at 62 g/ha: 62 g ai/ha, 100 complete control
Source text: as §2, §3, §4

[6] = test system: wheat (Triticum aestivum); assay: Test B pre-/postemergence plant response; details: for plant injury at 31 g/ha / plant injury at 62 g/ha: Triticum aestivum, read-out: Plant response rating, Wheat; for plant injury at 31 g/ha: 31 g ai/ha; for plant injury at 62 g/ha: 62 g ai/ha, 100 complete control
Source text: as §2, §3, §4

[7] = test system: yellow nutsedge (Cyperus esculentus); assay: Test B pre-/postemergence plant response; details: for pest or weed control at 31 g/ha / pest or weed control at 62 g/ha: Cyperus, read-out: Plant response rating, Nutsedge, Yellow; for pest or weed control at 31 g/ha: 31 g ai/ha; for pest or weed control at 62 g/ha: 62 g ai/ha, 100 complete control
Source text: as §2, §3, §4

[8] = test system: velvetleaf (Abutilon theophrasti); assay: Test B pre-/postemergence plant response; details: for pest or weed control at 31 g/ha / pest or weed control at 62 g/ha: Abutilon theophrasti, read-out: Plant response rating, Velvetleaf; for pest or weed control at 31 g/ha: 31 g ai/ha; for pest or weed control at 62 g/ha: 62 g ai/ha, 100 complete control
Source text: as §2, §3, §4

[9] = test system: eastern black (E.B.) nightshade (Solanum ptycanthum); assay: Test B pre-/postemergence plant response; details: Preemergence
Source text: as §2, §3, §4

[10] = post-emergence, Postemergence, 0 to 100 scale (0 no effect, 100 complete control)
[11] = post-emergence, Postemergence, 0 to 100 scale, 0 no effect, 100 complete control
[12] = pre-emergence, Preemergence, 0 to 100 scale, 0 is no effect, 100 is complete control
[13] = pre-emergence, Preemergence, 0 to 100 scale (0 no effect, 100 complete control)
[14] = 8 g ai/ha, postemergence, 0-100 scale
[15] = 16 g ai/ha, postemergence, 0-100 scale
[16] = Preemergence, 8 g ai/ha, scale 0 to 100 (0 no effect, 100 complete control)
[17] = Preemergence, 16 g ai/ha, scale 0 to 100
[18] = post-emergence, Postemergence, scale 0 to 100
[19] = post-emergence, Postemergence, scale 0 to 100, 0 no effect
[20] = pre-emergence, Preemergence, scale 0 to 100 (0 no effect, 100 complete control)
[21] = pre-emergence, Preemergence, 0 to 100 scale, 0 no effect
[22] = 8 g ai/ha, scale 0 to 100 (0 no effect, 100 complete control)

Cc1nn(C)c(=O)c(-c2nc(-c3ccc(Cl)cc3)sc2C)c1O [Compound 79, 4-[2-(4-chlorophenyl)-5-methyl-4-thiazolyl]-5-hydroxy-2,6-dimethyl-3(2H)-pyridazinone]
55: Ryegrass, Italian plant response rating [5, 14]
60%: plant injury at 31 g/ha [6, 18]
70%: pest or weed control at 125 g/ha [1, 11]
80%: pest or weed control at 16 g/ha ([3]; Cynodon dactylon, post-emergence, Postemergence, 16 g ai/ha, scale 0 to 100, read-out: Plant response rating, Bermudagrass) | pest or weed control at 31 g/ha [5, 18]
0: Soybean plant response rating (soybean (Glycine max); [14]) | Soybean plant response rating (soybean (Glycine max); [15]) | Soybean plant response rating (soybean (Glycine max); [16]) | Soybean plant response rating (soybean (Glycine max); [17]) | Sunflower plant response rating [4, 22] | Sunflower plant response rating ([4]; 16 g ai/ha, scale 0 to 100) | Ryegrass, Italian plant response rating [5, 16] | Wheat plant response rating [6, 14] | Wheat plant response rating [6, 16] | Wheat plant response rating [6, 17] | Nutsedge, Yellow plant response rating [7, 14] | Nutsedge, Yellow plant response rating [7, 15] | Nutsedge, Yellow plant response rating [7, 16] | Nutsedge, Yellow plant response rating [7, 17] | Velvetleaf plant response rating [8, 14] | Velvetleaf plant response rating [8, 15] | Velvetleaf plant response rating [8, 16] | Velvetleaf plant response rating [8, 17] | Nightshade, E. B. plant response rating [9, 22] | Nightshade, E. B. plant response rating ([9]; 16 g ai/ha, scale 0 to 100)
70: Bermudagrass plant response rating [3, 14] | Ryegrass, Italian plant response rating [5, 15]
20%: Corn plant response rating (crop injury, 0 = no effect, 100 = complete kill) at 125 g/ha (corn (Zea mays); [13])
98%: plant injury at 31 g/ha (soybean (Glycine max); [20])
100: Bermudagrass plant response rating ([3]; Preemergence, 16 g ai/ha, scale 0 to 100 (0 no effect, 100 complete control))
90%: pest or weed control at 62 g/ha [5, 19]
100%: pest or weed control at 125 g/ha [1, 13] | pest or weed control at 31 g/ha [2, 18] | pest or weed control at 62 g/ha [2, 19] | pest or weed control at 31 g/ha [2, 20] | pest or weed control at 62 g/ha [2, 21] | plant injury at 62 g/ha (soybean (Glycine max); [21]) | pest or weed control at 31 g/ha ([3]; Cynodon dactylon, post-emergence, Postemergence, scale 0 to 100, read-out: Plant response rating, Bermudagrass) | pest or weed control at 62 g/ha ([3]; Cynodon dactylon, post-emergence, Postemergence, scale 0 to 100, 0 no effect, read-out: Plant response rating, Bermudagrass) | pest or weed control at 31 g/ha ([3]; Cynodon dactylon, pre-emergence, Preemergence, scale 0 to 100 (0 no effect, 100 complete control), read-out: Plant response rating, Bermudagrass) | pest or weed control at 62 g/ha ([3]; Cynodon dactylon, pre-emergence, Preemergence, 0 to 100 scale, 0 no effect, read-out: Plant response rating, Bermudagrass) | pest or weed control at 31 g/ha [5, 20] | pest or weed control at 62 g/ha [5, 21]
65: Johnsongrass plant response rating [2, 16]
90: Johnsongrass plant response rating [2, 15] | Bermudagrass plant response rating [3, 16] | Ryegrass, Italian plant response rating [5, 17]
85%: plant injury at 62 g/ha [6, 19]
10%: pest or weed control at 31 g/ha [1, 10] | pest or weed control at 31 g/ha [1, 12]
0%: Corn plant response rating (crop injury, 0 = no effect, 100 = complete kill) at 31 g/ha (corn (Zea mays); [10]) | Corn plant response rating (crop injury, 0 = no effect, 100 = complete kill) at 31 g/ha (corn (Zea mays); [12]) | pest or weed control at 31 g/ha ([4]; Helianthus annuus, pre-emergence, 31 g ai/ha, scale 0 to 100 (0 no effect, 100 complete control), read-out: Plant response rating, Sunflower) | pest or weed control at 62 g/ha ([4]; Helianthus annuus, pre-emergence, 62 g ai/ha, 0 to 100 scale, 0 no effect, 100 complete control, read-out: Plant response rating, Sunflower) | plant injury at 31 g/ha [6, 20] | plant injury at 62 g/ha [6, 21] | pest or weed control at 31 g/ha [7, 18] | pest or weed control at 62 g/ha [7, 19] | pest or weed control at 31 g/ha [7, 20] | pest or weed control at 62 g/ha [7, 21] | pest or weed control at 31 g/ha [8, 18] | pest or weed control at 62 g/ha [8, 19] | pest or weed control at 31 g/ha [8, 20] | pest or weed control at 62 g/ha [8, 21] | pest or weed control at 62 g/ha ([9]; Solanum, pre-emergence, 62 g ai/ha, 0 to 100 scale, 0 no effect, 100 complete control, read-out: Plant response rating, Nightshade, E. B.)
15%: plant injury at 31 g/ha (soybean (Glycine max); [18]) | plant injury at 62 g/ha (soybean (Glycine max); [19])
30%: Corn plant response rating (crop injury, 0 = no effect, 100 = complete kill) at 125 g/ha (corn (Zea mays); [11])
20: Wheat plant response rating [6, 15]
85: Johnsongrass plant response rating [2, 14] | Johnsongrass plant response rating [2, 17]
